Assay results taken from patent US4315020A, “Oxazoline (trifluoroethyl) amine” (Science Union et Cie, priority 1976, dated 1982).
Values belong to the molecule of their own block, whether it stands above or below them.

Experiment: solubility
Assay type: physicochemical
Settings: for solubility in the stoichiometric amount of N/10 hydrochloric acid: N/10 hydrochloric acid solution

SMILES: FC(F)(F)C(NC1=NCCN1)c1ccccc1 (racemic) [I, 2(α-phenyl trifluoroethylamino) imidazoline]
solubility in the stoichiometric amount of N/10 hydrochloric acid (stoichiometric amount): soluble

SMILES: FC(F)(F)C(NC1=NCCO1)c1ccco1 (racemic) [X, dl 2-[α-trifluoromethyl (furyl-2)methylamino] oxazoline]
solubility in the stoichiometric amount of dilute hydrochloric acid (stoichiometric amount, dilute hydrochloric acid): soluble

SMILES: Cc1ccccc1C(NC1=NCCO1)C(F)(F)F (racemic) [XIX, dl 2-[(2-methylphenyl) ααα-trifluoroethyl]amino oxazoline]
solubility in the aqueous solution of mineral acids (aqueous mineral acids): soluble
solubility in the usual organic solvents (usual organic solvents): soluble

SMILES: CN(C1=NCCO1)C(c1ccccc1)C(F)(F)F (racemic) [XV, dl α-trifluoromethyl 2-(N-methylbenzylamino) oxazoline]
solubility in an aqueous solution of hydrochloric acid (aqueous hydrochloric acid): soluble
solubility in the most of the organic solvents (most organic solvents): soluble

SMILES: FC(F)(F)C(NC1=NCCO1)c1ccccc1 (single isomer, unassigned) [XII, levorotatory 2-[α-trifluoromethylbenzylamino] oxazoline]
solubility in dilute hydrochloric acid (dilute hydrochloric acid): solbuble

The remaining lines, values ahead:

solubility in a N/10 aqueous solution of hydrochloric acid (N/10 aqueous hydrochloric acid): soluble
SMILES: Cn1cccc1C(NC1=NCCO1)C(F)(F)F (racemic) [XIV, dl α-trifluoromethyl 2-[(N-methylpyrrolyl-2)methylamino] oxazoline]

solubility in the stoichiometric amount of N/10 hydrochloric acid (stoichiometric amount): soluble
SMILES: FC(F)(F)C(NC1=NCCO1)c1ccc[nH]1 (racemic) [XVI, dl α-trifluoromethyl 2-[(pyrrolyl-2)methylamino] oxazoline]
